# Experimental data published in patent US20210228530A1, “TAXANE-LIPID-POLYSACCHARIDE DUAL CONJUGATES, PREPARATION METHODS THEREOF AND USES THEREOF” (Santolecan Pharmaceuticals LLC, priority 2018, published 2021).
# What was measured:
# [1] = Enhanced solubility test for poorly water-soluble compounds; format: physicochemical; settings: 1.0 mg alone in 2.0 ml distilled water, sonicated for 1 minute
# MCF-7 tumor cells = assay: In vitro antitumor activity, MTT assay, MCF-7; format: cell-based; settings: Homo sapiens, MCF7, 72 h treatment, conjugates in taxane molar equivalents
# Description: (§1) In order to determine if the activity of the prepared intermediates and prepared conjugates, we evaluated their antitumor activities by using MTT assay.
# (§2) All cell lines were maintained in a humidified atmosphere containing 5% CO2 at 37° C. in different media supplemented with 10% FBS, 100 U/ml penicillin, and 100 μg/ml streptomycin. MCF-7, NCI-H460 or OVCAR-3 tumor cells were seeded into a 96-well cell culture plate and incubated overnight. The 96-well culture plate was taken out from the incubator, and the conjugates or mixture of different compounds or polysaccharides were added into it. […] Three wells were set at each concentration. Blank control contained tumor cells in normal medium without any sample. After treatment for 72 h, 20 μL of 3-(4, 5-dimethylthiazole-2)-2,5-diphenyltetrazolium bromide (MTT) were added to each well and incubated for 4 hours at 37° C. […] The half-inhibitory concentration (IC50 value) of each compound or conjugate was calculated.
# NCI-H460 tumor cells = assay: In vitro antitumor activity, MTT assay, NCI-H460; format: cell-based; settings: Homo sapiens, 72 h treatment, conjugates in taxane molar equivalents
# Description: as §1, §2
# [2] = In vivo safety assay in xenograft nude mice: body weight and death; set-up: species or system BALB/c (nu/nu) mice; settings: whole experiment period; 8.0 mg/kg docetaxel or equimolar dose, i.v. once a week, 4 weeks
# Description: BALB/c (nu/nu) mice (20±2 g, 4-6 weeks old) were housed under pathogen-free conditions. Cancer cells such MCF-7 and NCI-H460 5.0×10^6, suspended in 100 μl PBS, were subcutaneously inoculated into the lower right rank of the nude mice. When the tumor size reached 100-150 mm^3, the mice were divided randomly into different groups (n=6 in each group). The control group received the solvent only. […] The mice were treated for 4 weeks. After the administration, the mice are raised normally. The tumor volume and mouse body weight were measured on every 3 days.
# [3] = literature report, drugbank.ca; cited from earlier work
# [4] = test system: metastatic malignant melanoma cancer; settings: patients with metastatic malignant melanoma cancer; Ann. Oncol., 2011; cited from earlier work
# [5] = test system: OVCAR-3 (drug resistance) tumor cells; assay: In vitro antitumor activity, MTT assay, OVCAR-3; format: cell-based; settings: Homo sapiens, 72 h, taxane molar equivalents, molar ratio of taxane to lipid (Paclitaxel:DHA) 1:0, 1:1, 1:2, 1:4 per row
# Description: as §1
# All cell lines were maintained in a humidified atmosphere containing 5% CO2 at 37° C. in different media supplemented with 10% FBS, 100 U/ml penicillin, and 100 μg/ml streptomycin. MCF-7, NCI-H460 or OVCAR-3 tumor cells were seeded into a 96-well cell culture plate and incubated overnight. The 96-well culture plate was taken out from the incubator, and the conjugates or mixture of different compounds or polysaccharides were added into it. The concentration of each compound or conjugate were set to 500 nM, 200 nM, 100 nM, 50 nM, 25 nM, 12.5 nM, 6 nM, 3 nM and 1 nM. Three wells were set at each concentration. Blank control contained tumor cells in normal medium without any sample. After treatment for 72 h, 20 μL of 3-(4, 5-dimethylthiazole-2)-2,5-diphenyltetrazolium bromide (MTT) were added to each well and incubated for 4 hours at 37° C. After the removal of the supernatant, MTT formazan was dissolved in 150 μl dimethyl sulfoxide (DMSO) and monitored using a microplate reader at a wavelength of 570 nm. The half-inhibitory concentration (IC50 value) of each compound or conjugate was calculated.
IC50 (MCF-7 tumor cells) [nM],IC50 (NCI-H460 tumor cells) [nM],IC50 [5] [nM],Structure (SMILES),observation of the compound alone in water [1],death of nude mice [2],solubility in water (literature) [3] [µg/mL],final survival rates versus dacarbazine group [4]
,,,CC/C=C\C/C=C\C/C=C\C/C=C\C/C=C\C/C=C/CCC(=O)O[C@@H](C(=O)O[C@H]1C[C@@]2(O)[C@@H](OC(=O)c3ccccc3)C3[C@](C)(C(=O)[C@H](OC(C)=O)C(=C1C)C2(C)C)[C@@H](O)C[C@H]1OC[C@@]31OC(C)=O)[C@@H](NC(=O)c1ccccc1)c1ccccc1 (stereo partly drawn) [DHA-paclitaxel],,,,no significant differences in final survival rates
8.3 ± 0.5,7.1 ± 0.3,,"CO[C@H]1C(=O)[C@]2(C)[C@@H](OC)C[C@H]3OC[C@@]3(OC(C)=O)[C@H]2[C@H](OC(=O)c2ccccc2)[C@]2(O)C[C@H](OC(=O)[C@H](O)[C@@H](NC(=O)OC(C)(C)C)c3ccccc3)C(C)=C1C2(C)C [Cabazitaxel, cabazitaxel]",,,,
21.9 ± 1.1,17.9 ± 1.3,57.6 ± 6.3,"CC(=O)O[C@H]1C(=O)[C@@]2(C)[C@H]([C@H](OC(=O)c3ccccc3)[C@]3(O)C[C@H](OC(=O)[C@H](O)[C@@H](NC(=O)c4ccccc4)c4ccccc4)C(C)=C1C3(C)C)[C@]1(OC(C)=O)CO[C@@H]1C[C@@H]2O [Paclitaxel, paclitaxel]",undissolved powder floated over water surface was clearly observed,,,

Structure (SMILES),IC50 (MCF-7 tumor cells) [nM],IC50 (NCI-H460 tumor cells) [nM],IC50 [5] [nM],observation of the compound alone in water [1],death of nude mice [2],solubility in water (literature) [3] [µg/mL],final survival rates versus dacarbazine group [4]
"CC(=O)O[C@@]12CO[C@@H]1C[C@H](O)[C@@]1(C)C(=O)[C@H](O)C3=C(C)[C@@H](OC(=O)[C@H](O)[C@@H](NC(=O)OC(C)(C)C)c4ccccc4)C[C@@](O)([C@@H](OC(=O)c4ccccc4)[C@H]21)C3(C)C [Docetaxel, docetaxel]",9.5 ± 0.2,6.7 ± 0.6,,undissolved powder floated over water surface was clearly observed,no death,1.27,
